According to US12186283B2, “Bismuth-thiol compositions and methods of use” (Microbion Corporation, priority 2018, dated 2025):
Marks after values point to notes of the source that are not given here.

Key:
Type in all cases: cell-based
Candida glabrata = assay: Broth microdilution MIC, yeast (Example 13)
Candida albicans = assay: Broth microdilution MIC, yeast (Example 13)
Candida krusei = assay: Broth microdilution MIC, yeast (Example 13)
Aspergillus spp. = assay: Broth microdilution MIC/MEC, mold (Example 13); details: for MIC0 (complete inhibition): comparators, read time not given
Candida auris = assay: Broth microdilution MIC, yeast (Example 13)
[1] = Candida glabrata ATCC 90030, Susceptible
[2] = Candida glabrata ATCC MYA-2950, Susceptible
[3] = Candida glabrata MMX 7087, Susceptible
[4] = Candida glabrata MMX 7093, FLU-R
[5] = Candida glabrata MMX 7101, FLU-R
[6] = Candida glabrata MMX 7103, CASP-R, MICA-R
[7] = Candida glabrata MMX 7111, Susceptible
[8] = Candida glabrata MMX 7285, CASP-R, MICA-R
[9] = Candida glabrata MMX 7307, CASP-R, MICA-R, FLU-R
[10] = Candida glabrata MMX 7549, Susceptible
[11] = Candida albicans ATCC 90028, Susceptible, 24 hr
[12] = Candida albicans ATCC 204276, MICA-R, 24 hr
[13] = Candida albicans ATCC MYA-2732, FLU-R, VORI-I, 24 hr
[14] = Candida albicans MMX 7053, Susceptible, 24 hr
[15] = Candida albicans MMX 7067, FLU-R, VORI-R, 24 hr
[16] = Candida albicans MMX 7403, Susceptible, 24 hr
[17] = Candida albicans MMX 7424, CASP-R, MICA-R, 24 hr
[18] = Candida albicans MMX 7430, Susceptible, 24 hr
[19] = Candida albicans MMX 7437, FLU-I, 24 hr
[20] = C. krusei ATCC 14243, Susceptible
[21] = C. krusei ATCC 96685, Susceptible
[22] = C. krusei MMX 7125, Susceptible
[23] = C. krusei MMX 7128, Susceptible
[24] = C. krusei MMX 7141, Susceptible
[25] = C. krusei MMX 7155, Susceptible
[26] = C. krusei MMX 7563, Susceptible
[27] = C. krusei MMX 9878, MICA-I, VORI-I
[28] = C. auris MMX 9863, FLU-R, VORI-R
[29] = C. auris MMX 9864, FLU-R, VORI-R
[30] = C. auris MMX 9865, FLU-R, VORI-R
[31] = C. auris MMX 9866, FLU-R, VORI-R
[32] = C. auris MMX 9867, FLU-R, VORI-R
[33] = C. auris MMX 9868, FLU-R, VORI-R
[34] = C. auris MMX 9869, FLU-R, VORI-R
[35] = C. auris MMX 9870, FLU-R, VORI-R

C[C@@H]1[C@H](O)[C@@H](C)/C=C/C=C/C=C/C=C/C=C/C=C/C=C/[C@H](O[C@@H]2O[C@H](C)[C@@H](O)[C@H](N)[C@@H]2O)C[C@@H]2O[C@](O)(C[C@@H](O)C[C@@H](O)[C@H](O)CC[C@@H](O)C[C@@H](O)CC(=O)O[C@H]1C)C[C@H](O)[C@H]2C(=O)O [AMP B]
MIC0 (complete inhibition) (Candida glabrata; [1]): 0.25 µg/mL
MIC0 (complete inhibition) (Candida glabrata; [2]): 0.12 µg/mL
MIC0 (complete inhibition) (Candida glabrata; [3]): 0.12 µg/mL
MIC0 (complete inhibition) (Candida glabrata; [4]): 0.25 µg/mL
MIC0 (complete inhibition) (Candida glabrata; [5]): 0.25 µg/mL
MIC0 (complete inhibition) (Candida glabrata; [6]): 0.25 µg/mL
MIC0 (complete inhibition) (Candida glabrata; [7]): 0.25 µg/mL
MIC0 (complete inhibition) (Candida glabrata; [8]): 0.25 µg/mL
MIC0 (complete inhibition) (Candida glabrata; [9]): 0.25 µg/mL
MIC0 (complete inhibition) (Candida glabrata; [10]): 0.25 µg/mL
MIC0 (complete inhibition) (Candida albicans; [11]): 0.25 µg/mL
MIC0 (complete inhibition) (Candida albicans; [12]): 0.25 µg/mL
MIC0 (complete inhibition) (Candida albicans; [13]): 0.25 µg/mL
MIC0 (complete inhibition) (Candida albicans; [14]): 0.12 µg/mL
MIC0 (complete inhibition) (Candida albicans; [15]): 0.25 µg/mL
MIC0 (complete inhibition) (Candida albicans; [16]): 0.25 µg/mL
MIC0 (complete inhibition) (Candida albicans; [17]): 0.25 µg/mL
MIC0 (complete inhibition) (Candida albicans; [18]): 0.25 µg/mL
MIC0 (complete inhibition) (Candida albicans; [19]): 0.25 µg/mL
MIC0 (complete inhibition) (Candida albicans; Candida albicans MMX 7445, FLU-R, VORI-R, 24 hr): 0.12 µg/mL
MIC0 (complete inhibition) (Candida krusei; C. krusei ATCC 6258, MICA-I): 0.5 µg/mL
MIC0 (complete inhibition) (Candida krusei; [20]): 0.25 µg/mL
MIC0 (complete inhibition) (Candida krusei; [21]): 0.5 µg/mL
MIC0 (complete inhibition) (Candida krusei; [22]): 0.5 µg/mL
MIC0 (complete inhibition) (Candida krusei; [23]): 0.5 µg/mL
MIC0 (complete inhibition) (Candida krusei; [24]): 0.25 µg/mL
MIC0 (complete inhibition) (Candida krusei; C. krusei MMX 7153, MICA-R): 0.5 µg/mL
MIC0 (complete inhibition) (Candida krusei; [25]): 0.25 µg/mL
MIC0 (complete inhibition) (Candida krusei; [26]): 0.5 µg/mL
MIC0 (complete inhibition) (Candida krusei; [27]): 0.5 µg/mL
MIC0 (complete inhibition) (Aspergillus spp.; A. flavus ATCC 22546): 1 µg/mL
MIC0 (complete inhibition) (Aspergillus spp.; A. flavus ATCC 204304): 1 µg/mL
MIC0 (complete inhibition) (Aspergillus spp.; A. flavus MMX 7935): 1 µg/mL
MIC0 (complete inhibition) (Aspergillus spp.; A. fumigatus ATCC 204305): 1 µg/mL
MIC0 (complete inhibition) (Aspergillus spp.; A. fumigatus ATCC MYA-3626): 1 µg/mL
MIC0 (complete inhibition) (Aspergillus spp.; A. fumigatus MMX 5934): 1 µg/mL
MIC0 (complete inhibition) (Aspergillus spp.; A. fumigatus MMX 5938): 1 µg/mL
MIC0 (complete inhibition) (Aspergillus spp.; A. fumigatus MMX 5939): 1 µg/mL
MIC0 (complete inhibition) (Aspergillus spp.; A. niger ATCC 29508): 0.25 µg/mL
MIC0 (complete inhibition) (Aspergillus spp.; A. terreus MMX 8229): 0.25 µg/mL
MIC0 (complete inhibition) (Candida auris; C. auris MMX 9862, Susceptible): 0.25 µg/mL
MIC0 (complete inhibition) (Candida auris; [28]): 0.12 µg/mL
MIC0 (complete inhibition) (Candida auris; [29]): 0.25 µg/mL
MIC0 (complete inhibition) (Candida auris; [30]): 0.25 µg/mL
MIC0 (complete inhibition) (Candida auris; [31]): 0.5 µg/mL
MIC0 (complete inhibition) (Candida auris; [32]): 0.5 µg/mL
MIC0 (complete inhibition) (Candida auris; [33]): 0.25 µg/mL
MIC0 (complete inhibition) (Candida auris; [34]): 1 µg/mL
MIC0 (complete inhibition) (Candida auris; [35]): 1 µg/mL
MIC0 (complete inhibition) (Candida auris; C. auris MMX 9871, Susceptible): 1 µg/mL

CC[C@H](C)C[C@H](C)CCCCCCCCC(=O)N[C@H]1C[C@@H](O)[C@@H](NCCN)NC(=O)[C@@H]2[C@@H](O)CCN2C(=O)[C@H]([C@H](O)CCN)NC(=O)[C@H]([C@H](O)[C@@H](O)c2ccc(O)cc2)NC(=O)[C@@H]2C[C@@H](O)CN2C(=O)[C@H]([C@@H](C)O)NC1=O [CASP]
MIC2 (50% inhibition) (Candida glabrata; [1]): 0.12 µg/mL
MIC2 (50% inhibition) (Candida glabrata; [2]): 0.12 µg/mL
MIC2 (50% inhibition) (Candida glabrata; [3]): 0.12 µg/mL
MIC2 (50% inhibition) (Candida glabrata; [4]): 0.12 µg/mL
MIC2 (50% inhibition) (Candida glabrata; [5]): 0.12 µg/mL
MIC2 (50% inhibition) (Candida glabrata; [6]): >8 µg/mL
MIC2 (50% inhibition) (Candida glabrata; [7]): 0.12 µg/mL
MIC2 (50% inhibition) (Candida glabrata; [8]): 0.5 µg/mL
MIC2 (50% inhibition) (Candida glabrata; [9]): >8 µg/mL
MIC2 (50% inhibition) (Candida glabrata; [10]): 0.06 µg/mL
MIC2 (50% inhibition) (Candida albicans; [11]): 0.06 µg/mL
MIC2 (50% inhibition) (Candida albicans; [12]): 0.25 µg/mL
MIC2 (50% inhibition) (Candida albicans; [13]): 0.06 µg/mL
MIC2 (50% inhibition) (Candida albicans; [14]): 0.06 µg/mL
MIC2 (50% inhibition) (Candida albicans; [15]): 0.06 µg/mL
MIC2 (50% inhibition) (Candida albicans; [16]): 0.06 µg/mL
MIC2 (50% inhibition) (Candida albicans; [17]): 8 µg/mL
MIC2 (50% inhibition) (Candida albicans; [18]): 0.06 µg/mL
MIC2 (50% inhibition) (Candida albicans; [19]): 0.06 µg/mL
MIC2 (50% inhibition) (Candida albicans; Candida albicans MMX 7445, FLU-R, VORI-R, result after 48 hr incubation (insufficient growth at 24 hr)): 0.06^a μg/mL
MIC2 (50% inhibition) (Candida krusei; C. krusei ATCC 6258, MICA-I): 0.25 µg/mL
MIC2 (50% inhibition) (Candida krusei; [20]): 0.012 µg/mL
MIC2 (50% inhibition) (Candida krusei; [21]): 0.12 µg/mL
MIC2 (50% inhibition) (Candida krusei; [22]): 0.25 µg/mL
MIC2 (50% inhibition) (Candida krusei; [23]): 0.25 µg/mL
MIC2 (50% inhibition) (Candida krusei; [24]): 0.25 µg/mL
MIC2 (50% inhibition) (Candida krusei; C. krusei MMX 7153, MICA-R): 0.25 µg/mL
MIC2 (50% inhibition) (Candida krusei; [25]): 0.25 µg/mL
MIC2 (50% inhibition) (Candida krusei; [26]): 0.12 µg/mL
MIC2 (50% inhibition) (Candida krusei; [27]): 0.25 µg/mL
MEC (minimum effective concentration) (Aspergillus spp.; A. flavus ATCC 22546): 0.06 µg/mL
MEC (minimum effective concentration) (Aspergillus spp.; A. flavus ATCC 204304): 0.06 µg/mL
MEC (minimum effective concentration) (Aspergillus spp.; A. flavus MMX 7935): 0.03 µg/mL
MEC (minimum effective concentration) (Aspergillus spp.; A. fumigatus ATCC 204305): 0.25 µg/mL
MEC (minimum effective concentration) (Aspergillus spp.; A. fumigatus ATCC MYA-3626): 0.06 µg/mL
MEC (minimum effective concentration) (Aspergillus spp.; A. fumigatus MMX 5934): 0.12 µg/mL
MEC (minimum effective concentration) (Aspergillus spp.; A. fumigatus MMX 5938, 48 hr only, insufficient growth for 24 hr read): 0.12^b μg/mL
MEC (minimum effective concentration) (Aspergillus spp.; A. fumigatus MMX 5939): 0.12 µg/mL
MEC (minimum effective concentration) (Aspergillus spp.; A. niger ATCC 29508, 48 hr only, insufficient growth for 24 hr read): 0.06^b μg/mL
MEC (minimum effective concentration) (Aspergillus spp.; A. terreus MMX 8229, 48 hr only, insufficient growth for 24 hr read): 0.12^b μg/mL
MIC2 (50% inhibition) (Candida auris; C. auris MMX 9862, Susceptible): 0.12 µg/mL
MIC2 (50% inhibition) (Candida auris; [28]): 0.12^b μg/mL
MIC2 (50% inhibition) (Candida auris; [29]): 0.25^b μg/mL
MIC2 (50% inhibition) (Candida auris; [30]): 0.25^b μg/mL
MIC2 (50% inhibition) (Candida auris; [31]): 0.12^b μg/mL
MIC2 (50% inhibition) (Candida auris; [32]): 0.12 µg/mL
MIC2 (50% inhibition) (Candida auris; [33]): 0.25 µg/mL
MIC2 (50% inhibition) (Candida auris; [34]): 0.25 µg/mL
MIC2 (50% inhibition) (Candida auris; [35]): 0.25 µg/mL
MIC2 (50% inhibition) (Candida auris; C. auris MMX 9871, Susceptible): 0.25^b μg/mL
